# Patent publication US11807693B2 (priority 2014, dated 2023)
# Starred links: 1 amine or outer side, 2 acyl side, 3 side chain; linkers in the order of their positions; H or OH if unused. Non-standard residues stand in square brackets, D forms with d. Residues, ends and D or L forms follow the SMILES beside them. *: point of attachment. dBip = N[C@H](Cc1ccc(-c2ccccc2)cc1)C(=O)O; Oic = O=C(O)[C@@H]1C[C@@H]2CCCC[C@@H]2N1; Phe(4-Cl) = N[C@@H](Cc1ccc(Cl)cc1)C(=O)O; dPhe(4-Cl) = N[C@H](Cc1ccc(Cl)cc1)C(=O)O; Phe(4-I) = N[C@@H](Cc1ccc(I)cc1)C(=O)O; γGlu = O=C(O)[C@H](CCC(=O)[*:2])N[*:1]; 2Nal = N[C@@H](Cc1ccc2ccccc2c1)C(=O)O; NMehArg = CN[C@@H](CCCCNC(=N)N)C(=O)O; dIgl = N[C@@H](C(=O)O)C1Cc2ccccc2C1; NMeR = CN[C@@H](CCCNC(=N)N)C(=O)O; Tridecanoyl = CCCCCCCCCCCCC(=O)*; hArg = N=C(N)NCCCC[C@H](N)C(=O)O; Cha = N[C@@H](CC1CCCCC1)C(=O)O; NMeL = CN[C@@H](CC(C)C)C(=O)O; αMeL = CC(C)C[C@](C)(N)C(=O)O; β3hN = NC(=O)C[C@H](N)CC(=O)O; Tle = CC(C)(C)[C@H](N)C(=O)O; β3hP = O=C(O)C[C@@H]1CCCN1; Nle = CCCC[C@H](N)C(=O)O; AEEA = NCCOCCOCC(=O)O; Aib = CC(C)(N)C(=O)O
# Biological target: T1, rat APJ receptor (Rattus norvegicus, UniProt Q9JHG3)
# T1 construct: expressed in transfected cells
# T1 sequence (Q9JHG3 1-377): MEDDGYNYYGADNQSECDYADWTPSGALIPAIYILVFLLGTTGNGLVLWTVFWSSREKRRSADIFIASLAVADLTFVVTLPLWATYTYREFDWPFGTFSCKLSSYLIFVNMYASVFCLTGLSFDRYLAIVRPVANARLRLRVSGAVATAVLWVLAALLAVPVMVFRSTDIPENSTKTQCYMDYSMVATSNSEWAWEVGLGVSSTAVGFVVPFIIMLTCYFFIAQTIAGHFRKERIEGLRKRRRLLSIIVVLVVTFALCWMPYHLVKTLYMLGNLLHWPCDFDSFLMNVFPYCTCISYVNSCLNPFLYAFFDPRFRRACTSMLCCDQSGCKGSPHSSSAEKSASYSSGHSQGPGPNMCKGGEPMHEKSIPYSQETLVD
# Assay: [35S] GTPγS assay, rat APJ receptor
# Assay type: biochemical
# Settings: Table 16, read-out: EC50 Rat APJ Receptor
# Experimental: The membranes were incubated with modified peptides in the assay buffer. […] Bound [^35S] GTPγS was separated from free radiolabel by filtration. The filter bound radioactivity was determined by liquid scintillation counting.
row,SMILES,EC50 [nM]
1,CCCCCCCCCCCCC(=O)N[C@@H](CCC(=O)NCCOCCOCC(=O)NCCOCCOCC(=O)N[C@@H](CCC(N)=O)C(=O)N[C@@H](CCCNC(=N)N)C(=O)N1CCC[C@H]1C(=O)N(C)[C@@H](CCCNC(=N)N)C(=O)N[C@@H](CC(C)C)C(=O)N[C@@H](CO)C(=O)N[C@@H](Cc1c[nH]cn1)C(=O)N[C@@H](CCCCN)C(=O)NCC(=O)N1CCC[C@H]1C(=O)N[C@@H](CCCC)C(=O)N[C@@H](Cc1ccc2ccccc2c1)C(=O)O)C(=O)O [compound 403] ({Tridecanoyl-γGlu-AEEA-AEEA}-QRP[NMeR]LSHKGP[Nle][2Nal]-OH),8.1
2,CCCCCCCCCCCCC(=O)N[C@@H](CCC(=O)NCCOCCOCC(=O)NCCOCCOCC(=O)N[C@@H](CCC(N)=O)C(=O)N[C@@H](CCCNC(=N)N)C(=O)N1CCC[C@H]1C(=O)N[C@@H](CCCCNC(=N)N)C(=O)N[C@@](C)(CC(C)C)C(=O)N[C@@H](CO)C(=O)N[C@@H](Cc1c[nH]cn1)C(=O)N[C@@H](CCCCN)C(=O)NCC(=O)N1CCC[C@H]1C(=O)N[C@@H](CCCC)C(=O)N1CCC[C@H]1C(=O)N[C@@H](Cc1ccc2ccccc2c1)C(=O)O)C(=O)O [compound 404] ({Tridecanoyl-γGlu-AEEA-AEEA}-QRP[hArg][αMeL]SHKGP[Nle]P[2Nal]-OH),0.361
3,CCCCCCCCCCCCC(=O)N[C@@H](CCC(=O)NCCOCCOCC(=O)NCCOCCOCC(=O)N[C@@H](CCC(N)=O)C(=O)N[C@@H](CCCCNC(=N)N)C(=O)N1CCC[C@H]1C(=O)N(C)[C@@H](CCCNC(=N)N)C(=O)N[C@@H](CC1CCCCC1)C(=O)N[C@@H](CO)C(=O)N[C@@H](Cc1c[nH]cn1)C(=O)N[C@@H](CCCCN)C(=O)NCC(=O)N1[C@H](C(=O)N[C@@H](CCCC)C(=O)N2CCC[C@H]2C(=O)N[C@@H](Cc2ccc3ccccc3c2)C(=O)O)C[C@@H]2CCCC[C@@H]21)C(=O)O [compound 405] ({Tridecanoyl-γGlu-AEEA-AEEA}-Q[hArg]P[NMeR][Cha]SHKG[Oic][Nle]P[2Nal]-OH),13.8
4,CCCCCCCCCCCCC(=O)N[C@@H](CCC(=O)NCCOCCOCC(=O)NCCOCCOCC(=O)N[C@@H](CCC(N)=O)C(=O)N[C@@H](CCCNC(=N)N)C(=O)N1CCC[C@H]1C(=O)N(C)[C@@H](CCCNC(=N)N)C(=O)N[C@@H](CC1CCCCC1)C(=O)N[C@@H](CO)C(=O)N[C@@H](Cc1c[nH]cn1)C(=O)N[C@@H](CCCCN)C(=O)NCC(=O)NC(C)(C)C(=O)N[C@@H](CCCC)C(=O)N1CCC[C@H]1C(=O)N[C@@H](Cc1ccc(Cl)cc1)C(=O)O)C(=O)O [compound 414] ({Tridecanoyl-γGlu-AEEA-AEEA}-QRP[NMeR][Cha]SHKG[Aib][Nle]P[Phe(4-Cl)]-OH),3.79
5,CCCCCCCCCCCCC(=O)N[C@@H](CCC(=O)NCCOCCOCC(=O)NCCOCCOCC(=O)N[C@@H](CCC(N)=O)C(=O)N[C@@H](CCCNC(=N)N)C(=O)N1CCC[C@H]1C(=O)N(C)[C@@H](CCCNC(=N)N)C(=O)N[C@@H](CC1CCCCC1)C(=O)N[C@@H](CO)C(=O)N[C@@H](Cc1c[nH]cn1)C(=O)N[C@@H](CCCCN)C(=O)NCC(=O)N1CCC[C@H]1CC(=O)N[C@@H](CCCC)C(=O)N1CCC[C@H]1C(=O)N[C@@H](Cc1ccc(Cl)cc1)C(=O)O)C(=O)O [compound 417] ({Tridecanoyl-γGlu-AEEA-AEEA}-QRP[NMeR][Cha]SHKG[β3hP][Nle]P[Phe(4-Cl)]-OH),8.1
6,CCCCCCCCCCCCC(=O)N[C@@H](CCC(=O)NCCOCCOCC(=O)NCCOCCOCC(=O)N[C@H](CCC(N)=O)C(=O)N[C@@H](CCCCNC(=N)N)C(=O)N1CCC[C@H]1C(=O)N[C@H](CCCNC(=N)N)C(=O)N[C@@H](CC1CCCCC1)C(=O)N[C@@H](CO)C(=O)N[C@@H](Cc1c[nH]cn1)C(=O)N[C@@H](CCCCN)C(=O)NCC(=O)N1[C@H](C(=O)N[C@@H](CCCC)C(=O)N2CCC[C@H]2C(=O)N[C@@H](C(=O)O)C2Cc3ccccc3C2)C[C@@H]2CCCC[C@@H]21)C(=O)O [compound 431] ({Tridecanoyl-γGlu-AEEA-AEEA}-[dQ][hArg]P[dR][Cha]SHKG[Oic][Nle]P[dIgl]-OH),25
7,CCCCCCCCCCCCC(=O)N[C@@H](CCC(=O)NCCOCCOCC(=O)NCCOCCOCC(=O)N[C@H](CCC(N)=O)C(=O)N[C@@H](CCCCNC(=N)N)C(=O)N1CCC[C@H]1C(=O)N[C@H](CCCNC(=N)N)C(=O)N[C@H](C(=O)N[C@@H](CO)C(=O)N[C@@H](Cc1c[nH]cn1)C(=O)N[C@@H](CCCCN)C(=O)NCC(=O)N1[C@H](C(=O)N[C@@H](CCCC)C(=O)N2CCC[C@H]2C(=O)N[C@@H](Cc2ccc(Cl)cc2)C(=O)O)C[C@@H]2CCCC[C@@H]21)C(C)(C)C)C(=O)O [compound 433] ({Tridecanoyl-γGlu-AEEA-AEEA}-[dQ][hArg]P[dR][Tle]SHKG[Oic][Nle]P[Phe(4-Cl)]-OH),19.8
8,CCCCCCCCCCCCC(=O)N[C@@H](CCC(=O)NCCOCCOCC(=O)NCCOCCOCC(=O)N[C@@H](CCC(N)=O)C(=O)N[C@H](CCCNC(=N)N)C(=O)N1CCC[C@H]1C(=O)N(C)[C@@H](CCCCNC(=N)N)C(=O)N[C@@H](CC1CCCCC1)C(=O)N[C@@H](CO)C(=O)N[C@@H](Cc1c[nH]cn1)C(=O)N[C@@H](CCCCN)C(=O)NCC(=O)N1CCC[C@H]1C(=O)N[C@@H](CCCC)C(=O)N1CCC[C@H]1C(=O)N[C@@H](Cc1ccc(Cl)cc1)C(=O)O)C(=O)O [compound 435] ({Tridecanoyl-γGlu-AEEA-AEEA}-Q[dR]P[NMehArg][Cha]SHKGP[Nle]P[Phe(4-Cl)]-OH),1.15
9,CCCCCCCCCCCCC(=O)N[C@@H](CCC(=O)NCCOCCOCC(=O)NCCOCCOCC(=O)N[C@@H](CCC(N)=O)C(=O)N[C@@H](CCCNC(=N)N)C(=O)N1CCC[C@H]1C(=O)N(C)[C@@H](CCCNC(=N)N)C(=O)N[C@H](C(=O)N[C@@H](CO)C(=O)N[C@@H](Cc1c[nH]cn1)C(=O)N[C@@H](CCCCN)C(=O)NCC(=O)N1[C@H](C(=O)N[C@@H](CCCC)C(=O)N2CCC[C@H]2C(=O)N[C@@H](Cc2ccc(Cl)cc2)C(=O)O)C[C@@H]2CCCC[C@@H]21)C(C)(C)C)C(=O)O [compound 439] ({Tridecanoyl-γGlu-AEEA-AEEA}-QRP[NMeR][Tle]SHKG[Oic][Nle]P[Phe(4-Cl)]-OH),3.21

# Same assay, conditions: rat APJ receptor, read-out: EC50 Rat APJ Receptor
row,SMILES,EC50 [nM]
1,CCCCCCCCCCCCC(=O)N[C@@H](CCC(=O)NCCOCCOCC(=O)NCCOCCOCC(=O)N[C@@H](CC(N)=O)CC(=O)N[C@@H](CCCCNC(=N)N)C(=O)N1CCC[C@H]1C(=O)N(C)[C@@H](CCCNC(=N)N)C(=O)N[C@@H](CC1CCCCC1)C(=O)N[C@@H](CO)C(=O)N[C@@H](Cc1c[nH]cn1)C(=O)N[C@@H](CCCCN)C(=O)NCC(=O)N1[C@H](C(=O)N[C@@H](CCCC)C(=O)N2CCC[C@H]2C(=O)N[C@H](Cc2ccc(Cl)cc2)C(=O)O)C[C@@H]2CCCC[C@@H]21)C(=O)O [compound 299] ({Tridecanoyl-γGlu-AEEA-AEEA}-[β3hN][hArg]P[NMeR][Cha]SHKG[Oic][Nle]P[dPhe(4-Cl)]-OH),14.6
2,CCCCCCCCCCCCC(=O)N[C@@H](CCC(=O)NCCOCCOCC(=O)NCCOCCOCC(=O)N[C@@H](CCCCNC(=N)N)C(=O)N[C@H](CCCNC(=N)N)C(=O)N[C@@H](CCC(N)=O)C(=O)N[C@@H](CCCCNC(=N)N)C(=O)N1CCC[C@H]1C(=O)N[C@H](CCCNC(=N)N)C(=O)N(C)[C@@H](CC(C)C)C(=O)N[C@@H](C)C(=O)N[C@@H](Cc1c[nH]cn1)C(=O)N[C@@H](CCCC)C(=O)NCC(=O)N1[C@H](C(=O)N[C@@H](Cc2ccc(I)cc2)C(=O)N2CCC[C@H]2C(=O)N[C@H](Cc2ccc(-c3ccccc3)cc2)C(=O)O)C[C@@H]2CCCC[C@@H]21)C(=O)O [compound 318] ({Tridecanoyl-γGlu-AEEA-AEEA}-[hArg][dR]Q[hArg]P[dR][NMeL]AH[Nle]G[Oic][Phe(4-I)]P[dBip]-OH),46
3,CCCCCCCCCCCCC(=O)N[C@@H](CCC(=O)NCCOCCOCC(=O)NCCOCCOCC(=O)N[C@@H](CCCCNC(=N)N)C(=O)N[C@@H](CCCC)C(=O)N[C@@H](CCC(N)=O)C(=O)N[C@@H](CCCCNC(=N)N)C(=O)N1CCC[C@H]1C(=O)N[C@H](CCCNC(=N)N)C(=O)N(C)[C@@H](CC(C)C)C(=O)N[C@@H](CO)C(=O)N[C@@H](C)C(=O)N[C@@H](CCCCN)C(=O)NCC(=O)N1[C@H](C(=O)N[C@@H](Cc2ccc(I)cc2)C(=O)N2CCC[C@H]2C(=O)N[C@H](Cc2ccc(-c3ccccc3)cc2)C(=O)O)C[C@@H]2CCCC[C@@H]21)C(=O)O [compound 327] ({Tridecanoyl-γGlu-AEEA-AEEA}-[hArg][Nle]Q[hArg]P[dR][NMeL]SAKG[Oic][Phe(4-I)]P[dBip]-OH),14.8
4,CCCCCCCCCCCCC(=O)N[C@@H](CCC(=O)NCCOCCOCC(=O)NCCOCCOCC(=O)N[C@@H](CCCCNC(=N)N)C(=O)N[C@H](CCCNC(=N)N)C(=O)N[C@@H](CCC(N)=O)C(=O)N[C@@H](CCCC)C(=O)N1CCC[C@H]1C(=O)N[C@H](CCCNC(=N)N)C(=O)N(C)[C@@H](CC(C)C)C(=O)N[C@@H](C)C(=O)N[C@@H](C)C(=O)N[C@@H](CCCCN)C(=O)NCC(=O)N1[C@H](C(=O)N[C@@H](Cc2ccc(I)cc2)C(=O)N2CCC[C@H]2C(=O)N[C@H](Cc2ccc(-c3ccccc3)cc2)C(=O)O)C[C@@H]2CCCC[C@@H]21)C(=O)O [compound 334] ({Tridecanoyl-γGlu-AEEA-AEEA}-[hArg][dR]Q[Nle]P[dR][NMeL]AAKG[Oic][Phe(4-I)]P[dBip]-OH),44.7
5,CCCCCCCCCCCCC(=O)N[C@@H](CCC(=O)NCCOCCOCC(=O)NCCOCCOCC(=O)NCCOCCOCC(=O)NCCOCCOCC(=O)NCCOCCOCC(=O)NCCOCCOCC(=O)N[C@@H](CCC(N)=O)C(=O)N[C@@H](CCCNC(=N)N)C(=O)N1CCC[C@H]1C(=O)N(C)[C@@H](CCCNC(=N)N)C(=O)N[C@@H](CC(C)C)C(=O)N[C@@H](CO)C(=O)N[C@@H](Cc1c[nH]cn1)C(=O)N[C@@H](CCCCN)C(=O)NCC(=O)N1CCC[C@H]1C(=O)N[C@@H](CCCC)C(=O)N1CCC[C@H]1C(=O)N[C@@H](Cc1ccc(Cl)cc1)C(=O)O)C(=O)O [compound 398],0.116
